The source of these data is patent publication US7973051B2 (Hoffman-La Roche Inc., priority 2007, dated 2011).

For this assay, the target named is T1, human liver FBPase (Homo sapiens, UniProt P09467).
T1 construct: made in house; host or cells: E. coli
T1 sequence (P09467 2-338 limits assumed): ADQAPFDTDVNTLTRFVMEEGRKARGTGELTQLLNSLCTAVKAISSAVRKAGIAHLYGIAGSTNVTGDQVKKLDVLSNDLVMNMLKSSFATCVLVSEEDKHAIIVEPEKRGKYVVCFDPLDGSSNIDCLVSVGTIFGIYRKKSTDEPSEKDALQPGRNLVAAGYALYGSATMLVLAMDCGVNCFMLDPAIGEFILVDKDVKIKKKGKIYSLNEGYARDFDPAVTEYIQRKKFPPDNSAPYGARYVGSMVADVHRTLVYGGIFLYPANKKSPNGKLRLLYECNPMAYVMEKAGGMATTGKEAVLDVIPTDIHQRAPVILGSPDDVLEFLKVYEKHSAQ
Description: FBPase assay: inorganic phosphate release (malachite green). Particulars: recombinant human liver FBPase, 50 μM fructose-1,6-bisphosphate, read-out at 620 nm. The assay is classed as biochemical. On the procedure:
The following tests were carried out for evaluating the inhibitory activity of the compounds of the present invention against human liver FBPase (Swissprot Data base reference P09467, entry F16P_HUMAN).
Human liver FBPase cDNA (NM_000507) was purchased from Origene Technologies, Inc, subcloned in a vector for expression in E. Coli., and sequenced. Recombinant human liver FBPase (hlFBPase) was purified according to the following protocol that uses heat denaturation similarly to that described by El-Maghrabi et. al. [El-Maghrabi, M. R. et al. “Isolation of a human liver fructose-1,6-bisphosphatase cDNA and expression of the protein in Escherichia coli.” J Biol Chem 268:9466-9472, 1993.]. Briefly, E. coli cells, transiently expressing very high levels of soluble and active human liver FBPase, were suspended in 20 mM Tris-HCl pH 7.5, 1 mM EDTA, 1 mM DTT and were lysed by French press. The soluble extract was heat denatured at 65° C. for 5 min, and insoluble, denatured proteins were removed by centrifugation. The extract was then applied to a BioRad Macro-Prep High Q column equilibrated with 20 mM Tris-HCl pH 7.5, 1 mM EDTA, 1 mM DTT and the flow-through (containing FBPase activity) was collected and applied to a BioRad Macro-Prep HS column equilibrated with 20 mM HEPES pH 7.2, 1 mM DTT. A gradient of increasing NaCl concentration was then applied to the HS column and fractions were collected. Fractions containing active FBPase were pooled and further purified by size exclusion chromatography on a Sephacryl S200 column equilibrated in 20 mM Tris-HCl pH 7.5, 150 mM NaCl, 1 mM EDTA, 1 mM DTT. Purity of the enzyme preparation was >90% as assessed by Mass spectrometry.
Recombinant human liver FBPase (hlFBPase) activity was assayed through measuring the inorganic phosphate release that results from the hydrolysis of Fructose-1,6-bisphosphate by the enzyme. As described by Baykov A. A. et al. in [Baykov A. A et al., “Malachite Green procedure for orthophosphate determination and its use in alkaline phosphatase-based enzyme immunoassays”. Anal. Biochem., 171:266-270, 1988], inorganic phosphate can be readily quantified by spectrophotometry at 620 nm after complexation with ammonium molybdate/malachite green reagent. Enzymatic reaction was carried out with modifications of the procedure described by Wright S. W. et al. [Wright S. W. et al., “Anilinoquinazoline inhibitors of Fructose-1,6-bisphosphatase bind to a novel allosteric site: synthesis, in vitro characterization, and X-ray crystallography”. J. Med. Chem. 45:3865-3877, 2002]. Specifically, the reaction was carried out in 96 well plates in a final volume of 100 μl in the presence or in the absence of allosteric inhibitors. Reaction was started adding 25 ng of hlFBPase to the reaction mixture containing 50 mM HEPES-KOH buffer pH 7.2, 2 mM MgCl2, 2 mM EDTA, 1 mM DTT, 50 μM fructose-1,6-bisphosphate and 1% DMSO. After 50 minutes incubation at room temperature, the phosphate released was allowed to form a colored complex for 10 min by adding 150 μl of ammonium molybdate/malachite green reagent containing 0.03% malachite green, 0.2% ammonium molybdate, 0.05% Triton X-100 and 0.7 M H2SO4 in water that was stirred for 30 min at room temperature and filtered through 0.2 μm filter. Under these conditions, the assay was linear with time and able to detect FBPase inhibition after spectrophotometric read-out at 620 nm.
Usually IC50 stands for the point on the concentration scale where inhibition reaches its midpoint. On to `Cn1cc(S(=O)(=O)NC(=O)Nc2ncc(Br)s2)c2ccc(S(C)(=O)=O)cc21` [Example 30, N-[(5-Bromo-1,3-thiazol-2-yl)carbamoyl]-1-methyl-6-(methylsulfonyl)-1H-indole-3-sulfonamide], for which the IC50 was 523 nM. With `COCCn1cc(S(=O)(=O)NC(=O)Nc2ncc(Br)s2)c2ccccc21` [Example 31, N-[(5-Bromo-1,3-thiazol-2-yl)carbamoyl]-1-(2-methoxyethyl)-1H-indole-3-sulfonamide] the figure was 2250 nM; with `COC(=O)c1cccc2c(S(=O)(=O)NC(=O)Nc3ncc(Br)s3)cn(C)c12` [Example 32, Methyl 3-({[(5-bromo-1,3-thiazol-2-yl)carbamoyl]amino}sulfonyl)-1-methyl-1H-indole-7-carboxylate], 653 nM; with `COc1cccc2c(S(=O)(=O)NC(=O)Nc3ncc(Br)s3)cn(C)c12` [Example 33, N-[(5-Bromo-1,3-thiazol-2-yl)carbamoyl]-7-methoxy-1-methyl-1H-indole-3-sulfonamide], 71 nM. In the case of `Cn1cc(S(=O)(=O)NC(=O)Nc2ncc(Br)s2)c2cccc(Br)c21` [Example 34, 7-Bromo-N-[(5-bromo-1,3-thiazol-2-yl)carbamoyl]-1-methyl-1H-indole-3-sulfonamide] it was 296 nM; in that of `COCc1oc(S(=O)(=O)NC(=O)Nc2nc(C)c(Br)s2)cc1C` [Example 35, N-[(5-Bromo-4-methyl-1,3-thiazol-2-yl)carbamoyl]-5-(methoxymethyl)-4-methylfuran-2-sulfonamide], 258 nM. In the case of `COCc1oc(S(=O)(=O)NC(=O)Nc2ncc(Br)s2)cc1C` [Example 36, N-[(5-Bromo-1,3-thiazol-2-yl)carbamoyl]-5-(methoxymethyl)-4-methylfuran-2-sulfonamide] it was 315 nM; in that of `O=C(Nc1ncc(Br)s1)NS(=O)(=O)c1cc2cccc(OCc3ccccc3)c2s1` [Example 37, 7-(Benzyloxy)-N-[(5-bromo-1,3-thiazol-2-yl)carbamoyl]-1-benzothiophene-2-sulfonamide], 972 nM; in that of `COCCOc1cccc2cc(S(=O)(=O)NC(=O)Nc3ncc(Br)s3)sc12` [Example 38, N-[(5-bromo-1,3-thiazol-2-yl)carbamoyl]-7-(2-methoxyethoxy)-1-benzothiophene-2-sulfonamide], 179 nM. Turning to `COc1cccc2cc(S(=O)(=O)NC(=O)Nc3ncc(Br)s3)sc12` [Example 39, N-[(5-bromo-1,3-thiazol-2-yl)carbamoyl]-7-methoxy-1-benzothiophene-2-sulfonamide], the IC50 was determined as 105 nM. With `COc1cccc2cc(S(=O)(=O)NC(=O)Nc3ncc(Br)s3)n(C)c12` [Example 40, N-[(5-bromo-1,3-thiazol-2-yl)carbamoyl]-7-methoxy-1-methyl-1H-indole-2-sulfonamide] the figure was 329 nM; with `Cn1cc(S(=O)(=O)NC(=O)Nc2ncc(Br)s2)c2cccc(OCc3ccccc3)c21` [Example 41, 7-(Benzyloxy)-N-[(5-bromo-1,3-thiazol-2-yl)carbamoyl]-1-methyl-1H-indole-3-sulfonamide], 124 nM. In the case of `COCCOc1cccc2c(S(=O)(=O)NC(=O)Nc3ncc(Br)s3)cn(C)c12` [Example 42, N-[(5-bromo-1,3-thiazol-2-yl)carbamoyl]-7-(2-methoxyethoxy)-1-methyl-1H-indole-3-sulfonamide] it was 375 nM; in that of `COc1cccc2c(S(=O)(=O)NC(=O)Nc3ncc(Br)s3)c[nH]c12` [Example 43, N-[(5-bromo-1,3-thiazol-2-yl)carbamoyl]-7-methoxy-1H-indole-3-sulfonamide], 4060 nM. In the case of `COc1cnc(NC(=O)NS(=O)(=O)c2cn(C)c3c(OC)cccc23)s1` [Example 44, 7-Methoxy-N-[(5-methoxy-1,3-thiazol-2-yl)carbamoyl]-1-methyl-1H-indole-3-sulfonamide] it was 1320 nM; in that of `COCCc1sc(S(=O)(=O)NC(=O)Nc2nc3cc(OC)ccc3s2)cc1C` [Example 45, N-[(5-Methoxy-1,3-benzothiazol-2-yl)carbamoyl]-5-(2-methoxyethyl)-4-methylthiophene-2-sulfonamide], 402 nM.

Regarding `COc1cnc(NC(=O)NS(=O)(=O)c2cn(C)c3c(OCCOC(C)=O)cccc23)s1` [Example 46, 2-{[3-({[(5-Methoxy-1,3-thiazol-2-yl)carbamoyl]amino}sulfonyl)-1-methyl-1H-indol-7-yl]oxy}ethyl acetate], the IC50 worked out at 3500 nM. In the case of `COc1cnc(NC(=O)NS(=O)(=O)c2cn(C)c3c(OCCO)cccc23)s1` [Example 47, 7-(2-Hydroxyethoxy)-N-[(5-methoxy-1,3-thiazol-2-yl)carbamoyl]-1-methyl-1H-indole-3-sulfonamide] it was 734 nM; in that of `CC(=O)OCCOc1cccc2c(S(=O)(=O)NC(=O)Nc3ncc(Br)s3)cn(C)c12` [Example 48, 2-{[3-({[(5-Bromo-1,3-thiazol-2-yl)carbamoyl]amino}sulfonyl)-1-methyl-1H-indol-7-yl]oxy}ethyl acetate], 429 nM. In the case of `Cn1cc(S(=O)(=O)NC(=O)Nc2ncc(Br)s2)c2cccc(OCCO)c21` [Example 49, N-[(5-Bromo-1,3-thiazol-2-yl)carbamoyl]-7-(2-hydroxyethoxy)-1-methyl-1H-indole-3-sulfonamide], the IC50 was found to be 104 nM. In the case of `CCOC(=O)COc1cccc2c(S(=O)(=O)NC(=O)Nc3ncc(Br)s3)cn(C)c12` [Example 50, Ethyl {[3-({[(5-bromo-1,3-thiazol-2-yl)carbamoyl]amino}sulfonyl)-1-methyl-1H-indol-7-yl]oxy}acetate] it was 212 nM; in that of `Cn1cc(S(=O)(=O)NC(=O)Nc2ncc(Br)s2)c2cccc(OCC(N)=O)c21` [Example 51, 2-{[3-({[(5-Bromo-1,3-thiazol-2-yl)carbamoyl]amino}sulfonyl)-1-methyl-1H-indol-7-yl]oxy}acetamide], 137 nM; in that of `COc1sc(NC(=O)NS(=O)(=O)c2cn(C)c3c(OC)cccc23)nc1C` [Example 52, 7-Methoxy-N-[(5-methoxy-4-methyl-1,3-thiazol-2-yl)carbamoyl]-1-methyl-1H-indole-3-sulfonamide], 771 nM. In the case of `COc1sc(NC(=O)NS(=O)(=O)c2cn(C)c3c(OCC(N)=O)cccc23)nc1C` [Example 53, 2-{[3-({[(5-Methoxy-4-methyl-1,3-thiazol-2-yl)carbamoyl]amino}sulfonyl)-1-methyl-1H-indol-7-yl]oxy}acetamide] it was 764 nM; in that of `COc1cnc(NC(=O)NS(=O)(=O)c2cc3cccc(OC)c3s2)s1` [Example 54], 1280 nM.

For `COc1ccc2nc(NC(=O)NS(=O)(=O)c3cc(C)c(CCOC(C)=O)s3)sc2n1` [Example 55, 2-[5-({[(5-methoxy[1,3]thiazolo[5,4-b]pyridin-2-yl)carbamoyl]amino}sulfonyl)-3-methyl-2-thienyl]ethyl acetate], the IC50 amounted to 616 nM. In the case of `COc1ccc2nc(NC(=O)NS(=O)(=O)c3cc(C)c(CCO)s3)sc2n1` [Example 56, 5-(2-Hydroxyethyl)-N-[(5-methoxy[1,3]thiazolo[5,4-b]pyridin-2-yl)carbamoyl]-4-methylthiophene-2-sulfonamide] it was 534 nM.
